Measured values from the NIST ThermoML archive (doi:10.1016/j.fluid.2013.12.015).
± gives the expanded uncertainty stated by the source.

Details: Liquid, Closed cell (Static) method

Row | SMILES | vapor or sublimation pressure (283.15 K) | vapor or sublimation pressure (293.15 K) | vapor or sublimation pressure (303.15 K) | vapor or sublimation pressure (313.15 K) | vapor or sublimation pressure (323.15 K)
1 | C=C(F)C(F)(F)F [2,3,3,3-tetrafluoro-1-propene] | 436.5 ± 7 kPa | 591 ± 7.1 kPa | 780.5 ± 7.1 kPa | 1015.6 ± 7.2 kPa | 1300.7 ± 7.2 kPa
2 | CC(C)C [2-methylpropane] | 222.2 ± 7 kPa | 303.3 ± 7 kPa | 406 ± 7 kPa | 530.3 ± 7 kPa | 684.4 ± 7.1 kPa
